Test results as given in ChEMBL document CHEMBL3885861, “Open TG-GATES”.

Species on record: Rattus norvegicus
Experiment: Open TG-GATES - Regimen: Single
Assay type: toxicity, organism-based, Sprague-Dawley
Parameters: regimen Single, gender Male, age 6 weeks
Settings: in vivo, po, 20 mg/kg, route gavage, dose level Low; for APTT / Bas / Eos / Fbg / Hb / Ht / Lym / MCH / MCHC / MCV / Mono / Neu / PT / Plat / RBC / Ret / WBC: tissue Blood; for KIDNEY_TOTAL: tissue Kidney; for LIVER: tissue Liver; for A/G / ALP / ALT / AST / BUN / CRE / Ca / Cl / DBIL / GLC / IP / K / LDH / Na / PL / RALB / TBIL / TC / TG / TP / gamma-GTP: tissue Plasma

CN(CCOc1ccc(CC2SC(=O)NC2=O)cc1)c1ccccn1.O=C(O)/C=C\C(=O)O (configuration not stated) [ROSIGLITAZONE MALEATE]
TERMINAL_BW (9 h): 198.4 g
APTT (9 h): 16.5 s
Bas (9 h): 0%
Eos (9 h): 1%
Fbg (9 h): 219 mg/dL
Hb (9 h): 12.7 g/dL
Ht (9 h): 38.2%
Lym (9 h): 73%
MCH (9 h): 21.7 pg
MCHC (9 h): 33.3%
MCV (9 h): 65.1 fL
Mono (9 h): 6%
Neu (9 h): 20.4%
PT (9 h): 12.2 s
Plat (9 h): 118 x10_4/uL
RBC (9 h): 586.6 x10_4/ul
Ret (9 h): 9%
WBC (9 h): 90.8 x10_2/uL
KIDNEY_TOTAL (9 h): 0.7 g
LIVER (9 h): 8.5 g
A/G (9 h): 2.4
ALP (9 h): 1181.6 IU/L
ALT (9 h): 35.2 IU/L
AST (9 h): 64.4 IU/L
BUN (9 h): 12.2 mg/dL
CRE (9 h): 0.3 mg/dL
Ca (9 h): 11 mg/dL
Cl (9 h): 104.6 meq/L
DBIL (9 h): 0.01 mg/dL
GLC (9 h): 192.4 mg/dL
IP (9 h): 10.3 mg/dL
K (9 h): 4.2 meq/L
LDH (9 h): 80.6 IU/L
Na (9 h): 140 meq/L
PL (9 h): 130.6 mg/dL
RALB (9 h): 3.8 g/dL
TBIL (9 h): 0.044 mg/dL
TC (9 h): 78.4 mg/dL
TG (9 h): 57.6 mg/dL
TP (9 h): 5.3 g/dL
gamma-GTP (9 h): 0.8 IU/L
TERMINAL_BW (24 h): 217.5 g
APTT (24 h): 15.7 s
Bas (24 h): 0%
Eos (24 h): 1%
Fbg (24 h): 232 mg/dL
Hb (24 h): 12.8 g/dL
Ht (24 h): 39%
Lym (24 h): 74.2%
MCH (24 h): 21.3 pg
MCHC (24 h): 32.9%
MCV (24 h): 64.8 fL
Mono (24 h): 8%
Neu (24 h): 17%
PT (24 h): 11.4 s
Plat (24 h): 119.2 x10_4/uL
RBC (24 h): 602.6 x10_4/ul
Ret (24 h): 7.1%
WBC (24 h): 95 x10_2/uL
KIDNEY_TOTAL (24 h): 0.7 g
LIVER (24 h): 11.3 g
A/G (24 h): 2.4
ALP (24 h): 1603.4 IU/L
ALT (24 h): 34.2 IU/L
AST (24 h): 66.2 IU/L
BUN (24 h): 16 mg/dL
CRE (24 h): 0.4 mg/dL
Ca (24 h): 11.3 mg/dL
Cl (24 h): 104.2 meq/L
DBIL (24 h): 0.014 mg/dL
GLC (24 h): 190.2 mg/dL
IP (24 h): 7.7 mg/dL
K (24 h): 4.3 meq/L
LDH (24 h): 102 IU/L
Na (24 h): 141 meq/L
PL (24 h): 153.4 mg/dL
RALB (24 h): 3.9 g/dL
TBIL (24 h): 0.034 mg/dL
TC (24 h): 87.4 mg/dL
TG (24 h): 128.2 mg/dL
TP (24 h): 5.5 g/dL
gamma-GTP (24 h): 1 IU/L
